# Source: US10889610B2, “Alpha-D-galactoside inhibitors of galectins” (GALECTO BIOTECH AB, priority 2016, dated 2021)
# Tested on: galectins
# Assay: not given
# Conditions: relative to lactose, all galectins; cited from earlier work
row,SMILES,"affinity, times lower than lactose"
1,O=C[C@H](O)[C@@H](O)[C@@H](O)[C@H](O)CO [D-galactose],50-100 times

# Same assay, conditions: reviewed by Leffler 2001, Leffler et al. 2004; read-out: Kd, all galectins; cited from earlier work
row,SMILES,Kd [µM]
1,OC[C@H]1O[C@@H](O[C@H]2[C@H](O)[C@@H](O)C(O)O[C@@H]2CO)[C@H](O)[C@@H](O)[C@H]1O (some centres unmarked) [lactose],500 to 1000

# Biological target: galectin-1 (Homo sapiens (Human), UniProt P09382)
# Assay: Fluorescence anisotropy assay, galectin-1 affinity
# Format: binding
# Conditions: inhibition of galectin / fluorescein tagged saccharide probe interaction
# Protocol: The affinity of Example 1-22 for galectins were determined by a fluorescence anisotropy assay where the compound was used as an inhibitor of the interaction between galectin and a fluorescein tagged saccharide probe as described Sörme, P., Kahl-Knutsson, B., Huflejt, M., Nilsson, U. J., and Leffler H. (2004) Fluorescence polarization as an analytical tool to evaluate galectin-ligand interactions. Anal. Biochem. 334: 36-47, (Sörme et al., 2004) and Monovalent interactions of Galectin-1 By Salomonsson, Emma; Larumbe, Amaia; Tejler, Johan; Tullberg, Erik; Rydberg, Hanna; Sundin, Anders; Khabut, Areej; Frejd, Torbjorn; Lobsanov, Yuri D.; Rini, James M.; et al, From Biochemistry (2010), 49(44), 9518-9532, (Salomonsson et al., 2010). […] 100 nM albumin was included as a carrier to prevent protein loss at such low concentration of galectin.
# Chain of galectin-1 (P09382 whole entry): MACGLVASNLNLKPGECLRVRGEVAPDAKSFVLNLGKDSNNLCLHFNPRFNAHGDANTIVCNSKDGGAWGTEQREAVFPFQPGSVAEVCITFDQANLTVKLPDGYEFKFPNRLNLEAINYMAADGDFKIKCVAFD
row,Kd [µM],SMILES
1,7,"N#Cc1ncc(S[C@H]2O[C@H](CO)[C@H](O)[C@H](n3cc(-c4cc(F)c(Cl)c(F)c4)nn3)[C@H]2O)cc1Br [Example 12, 5-Bromo-6-cyano-3-pyridyl 3-deoxy-3-[4-(4-chloro-3,5-difluorophenyl)-1H-1,2,3-triazol-1-yl]-1-thio-α-D-galactopyranoside]"
2,2.6,"N#Cc1cnc(S[C@H]2O[C@H](CO)[C@H](O)[C@H](n3cc(-c4cc(F)c(F)c(F)c4)nn3)[C@H]2O)cc1Br [Example 1, 4-Bromo-5-cyano-2-pyridyl 3-deoxy-3-[4-(3,4,5-trifluorophenyl)-1H-1,2,3-triazol-1-yl]-1-thio-α-D-galactopyranoside]"
3,6.9,"OC[C@H]1O[C@H](Sc2cc(Cl)ccn2)[C@H](O)[C@@H](n2cc(-c3cc(F)c(F)c(F)c3)nn2)[C@H]1O [Example 7, 4-Chloro-2-pyridyl 3-deoxy-3-[4-(3,4,5-trifluorophenyl)-1H-1,2,3-triazol-1-yl]-1-thio-α-D-galactopyranoside]"

# Biological target: galectin-3 (Homo sapiens (Human), UniProt P17931)
# Assay: Fluorescence anisotropy assay, galectin-3 affinity
# Format: binding
# Conditions: inhibition of galectin / fluorescein tagged saccharide probe interaction
# Protocol: Anal. Biochem. 334: 36-47, (Sörme et al., 2004) and Monovalent interactions of Galectin-1 By Salomonsson, Emma; Larumbe, Amaia; Tejler, Johan; Tullberg, Erik; Rydberg, Hanna; Sundin, Anders; Khabut, Areej; Frejd, Torbjorn; Lobsanov, Yuri D.; Rini, James M.; et al, From Biochemistry (2010), 49(44), 9518-9532, (Salomonsson et al., 2010). […] 100 nM albumin was included as a carrier to prevent protein loss at such low concentration of galectin.
# Chain of galectin-3 (P17931 whole entry): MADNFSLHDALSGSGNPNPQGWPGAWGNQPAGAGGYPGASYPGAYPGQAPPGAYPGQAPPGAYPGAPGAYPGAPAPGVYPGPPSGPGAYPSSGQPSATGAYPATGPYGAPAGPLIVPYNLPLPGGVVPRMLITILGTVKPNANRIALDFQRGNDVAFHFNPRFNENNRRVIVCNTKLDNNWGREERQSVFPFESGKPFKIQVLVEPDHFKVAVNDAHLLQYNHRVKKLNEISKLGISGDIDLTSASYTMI
row,SMILES,Kd [µM]
1,"N#Cc1ncc(S[C@H]2O[C@H](CO)[C@H](O)[C@H](n3cc(-c4cc(F)c(Cl)c(F)c4)nn3)[C@H]2O)cc1Br [Example 12, 5-Bromo-6-cyano-3-pyridyl 3-deoxy-3-[4-(4-chloro-3,5-difluorophenyl)-1H-1,2,3-triazol-1-yl]-1-thio-α-D-galactopyranoside]",0.016
2,"N#Cc1ncc(S[C@H]2O[C@H](CO)[C@H](O)[C@H](n3cc(-c4cc(F)c(Cl)c(F)c4)nn3)[C@H]2O)cc1Cl [Example 10, 5-Chloro-6-cyano-3-pyridyl 3-deoxy-3-[4-(4-chloro-3,5-difluorophenyl)-1H-1,2,3-triazol-1-yl]-1-thio-α-D-galactopyranoside]",0.018
3,"OC[C@H]1O[C@H](Sc2cncc(Cl)c2)[C@H](O)[C@@H](n2cc(-c3ccc(Cl)c(Cl)c3)nn2)[C@H]1O [Example 21, 5-Chloro-3-pyridyl 3-deoxy-3-[4-(3,4-dichlorophenyl)-1H-1,2,3-triazol-1-yl]-1-thio-α-D-galactopyranoside]",0.031
4,"N#Cc1ncc(S[C@H]2O[C@H](CO)[C@H](O)[C@H](n3cc(-c4cc(F)c(F)c(F)c4)nn3)[C@H]2O)cc1Br [Example 5, 5-Bromo-6-cyano-3-pyridyl 3-deoxy-3-[4-(3,4,5-trifluorophenyl)-1H-1,2,3-triazol-1-yl]-1-thio-α-D-galactopyranoside]",0.022
5,"N#Cc1ncc(Cl)cc1S[C@H]1O[C@H](CO)[C@H](O)[C@H](n2cc(-c3cc(F)c(F)c(F)c3)nn2)[C@H]1O [Example 4, 5-Chloro-2-cyano-3-pyridyl 3-deoxy-3-[4-(3,4,5-trifluorophenyl)-1H-1,2,3-triazol-1-yl]-1-thio-α-D-galactopyranoside]",0.029
6,"OC[C@H]1O[C@H](Sc2cncc(Cl)c2)[C@H](O)[C@@H](n2cc(-c3cc(F)c(C(F)(F)F)c(F)c3)nn2)[C@H]1O [Example 15, 5-Chloro-3-pyridyl 3-deoxy-3-[4-(3,5-difluoro-4-trifluoromethyl-phenyl)-1H-1,2,3-triazol-1-yl]-1-thio-α-D-galactopyranoside]",0.097
7,"N#Cc1ncc(Br)cc1S[C@H]1O[C@H](CO)[C@H](O)[C@H](n2cc(-c3cc(F)c(F)c(F)c3)nn2)[C@H]1O [Example 6, 5-Bromo-2-cyano-3-pyridyl 3-deoxy-3-[4-(3,4,5-trifluorophenyl)-1H-1,2,3-triazol-1-yl]-1-thio-α-D-galactopyranoside]",0.022
8,"N#Cc1ncc(Br)cc1S[C@H]1O[C@H](CO)[C@H](O)[C@H](n2cc(-c3cc(F)c(Cl)c(F)c3)nn2)[C@H]1O [Example 11, 5-Bromo-2-cyano-3-pyridyl 3-deoxy-3-[4-(4-chloro-3,5-difluorophenyl)-1H-1,2,3-triazol-1-yl]-1-thio-α-D-galactopyranoside]",0.011
9,"OC[C@H]1O[C@H](Sc2ccnc(Cl)c2)[C@H](O)[C@@H](n2cc(-c3cc(F)c(F)c(F)c3)nn2)[C@H]1O [Example 3, 2-Chloro-4-pyridyl 3-deoxy-3-[4-(3,4,5-trifluorophenyl)-1H-1,2,3-triazol-1-yl]-1-thio-α-D-galactopyranoside]",0.086
10,"N#Cc1cnc(S[C@H]2O[C@H](CO)[C@H](O)[C@H](n3cc(-c4cc(F)c(F)c(F)c4)nn3)[C@H]2O)cc1Br [Example 1, 4-Bromo-5-cyano-2-pyridyl 3-deoxy-3-[4-(3,4,5-trifluorophenyl)-1H-1,2,3-triazol-1-yl]-1-thio-α-D-galactopyranoside]",0.027
11,"OC[C@H]1O[C@H](Sc2ccc(Cl)c(Cl)c2)[C@H](O)[C@@H](n2cc(-c3cncc(F)c3)nn2)[C@H]1O [Example 20, 3,4-Dichlorophenyl 3-deoxy-3-[4-(5-fluoro-3-pyridyl)-1H-1,2,3-triazol-1-yl]-1-thio-α-D-galactopyranoside]",0.75
12,"OC[C@H]1O[C@H](Sc2cncc(Cl)c2)[C@H](O)[C@@H](n2cc(-c3cc(F)c(Br)c(F)c3)nn2)[C@H]1O [Example 17, 5-Chloro-3-pyridyl 3-deoxy-3-[4-(4-bromo-3,5-difluorophenyl)-1H-1,2,3-triazol-1-yl]-1-thio-α-D-galactopyranoside]",0.028
13,"OC[C@H]1O[C@H](Sc2cncc(Cl)c2)[C@H](O)[C@@H](n2cc(-c3ccc(Cl)c(F)c3)nn2)[C@H]1O [Example 19, 5-Chloro-3-pyridyl 3-deoxy-3-[4-(4-chloro-3-fluorophenyl)-1H-1,2,3-triazol-1-yl]-1-thio-α-D-galactopyranoside]",0.034
14,"OC[C@H]1O[C@H](Sc2cncc(Cl)c2)[C@H](O)[C@@H](n2cc(-c3cc(F)c(Cl)c(F)c3)nn2)[C@H]1O [Example 9, 5-Chloro-3-pyridyl 3-deoxy-3-[4-(4-chloro-3,5-difluorophenyl)-1H-1,2,3-triazol-1-yl]-1-thio-α-D-galactopyranoside]",0.022

# The next lines start with the values.
row,Kd [µM],SMILES
1,0.027,"OC[C@H]1O[C@H](Sc2cncc(Cl)c2)[C@H](O)[C@@H](n2cc(-c3cc(F)c(Cl)c(Cl)c3)nn2)[C@H]1O [Example 18, 5-Chloro-3-pyridyl 3-deoxy-3-[4-(3,4-dichloro-5-fluorophenyl)-1H-1,2,3-triazol-1-yl]-1-thio-α-D-galactopyranoside]"
2,0.694,"OC[C@H]1O[C@H](Sc2ccc(Cl)c(Cl)c2)[C@H](O)[C@@H](n2cc(-c3cncc(Cl)c3)nn2)[C@H]1O [Example 22, 3,4-Dichlorophenyl 3-deoxy-3-[4-(5-chloro-3-pyridyl)-1H-1,2,3-triazol-1-yl]-1-thio-α-D-galactopyranoside]"
3,0.018,"Cc1c(F)cc(-c2cn([C@@H]3[C@@H](O)[C@@H](Sc4cncc(Cl)c4)O[C@H](CO)[C@@H]3O)nn2)cc1F [Example 16, 5-Chloro-3-pyridyl 3-deoxy-3-[4-(3,5-difluoro-4-methylphenyl)-1H-1,2,3-triazol-1-yl]-1-thio-α-D-galactopyranoside]"
4,0.12,"OC[C@H]1O[C@H](Sc2cc(Cl)ccn2)[C@H](O)[C@@H](n2cc(-c3cc(F)c(F)c(F)c3)nn2)[C@H]1O [Example 7, 4-Chloro-2-pyridyl 3-deoxy-3-[4-(3,4,5-trifluorophenyl)-1H-1,2,3-triazol-1-yl]-1-thio-α-D-galactopyranoside]"
5,0.011,"N#Cc1ncc(Cl)cc1S[C@H]1O[C@H](CO)[C@H](O)[C@H](n2cc(-c3cc(F)c(Cl)c(F)c3)nn2)[C@H]1O [Example 13, 5-Chloro-2-cyano-3-pyridyl 3-deoxy-3-[4-(4-chloro-3,5-difluorophenyl)-1H-1,2,3-triazol-1-yl]-1-thio-α-D-galactopyranoside]"
6,0.18,"N#Cc1c(F)cc(-c2cn([C@@H]3[C@@H](O)[C@@H](Sc4cncc(Cl)c4)O[C@H](CO)[C@@H]3O)nn2)cc1F [Example 14, 5-Chloro-3-pyridyl 3-deoxy-3-[4-(4-cyano-3,5-difluorophenyl)-1H-1,2,3-triazol-1-yl]-1-thio-α-D-galactopyranoside]"
7,0.057,"N#Cc1cnc(S[C@H]2O[C@H](CO)[C@H](O)[C@H](n3cc(-c4cc(F)c(F)c(F)c4)nn3)[C@H]2O)cc1Cl [Example 2, 4-Chloro-5-cyano-2-pyridyl 3-deoxy-3-[4-(3,4,5-trifluorophenyl)-1H-1,2,3-triazol-1-yl]-1-thio-α-D-galactopyranoside]"
